In patent US8734869B2, “Synergistic pest-control compositions” (TyraTech, Inc., priority 2007, dated 2014):

Assays:
male German Cockroach = experiment: Time to kill: five microliters applied to the sternum, time to death recorded (stopped at one hour); assay type: in vivo; details: five microliters on sternum
Description: Five microliters of the oil or oil blend listed in the table below were applied to the sternum of a male German Cockroach, and the time to death was recorded (time keeping was stopped at one hour). Sample size N=60 for Blend 24 and N=40 for each of the oil components. Components were diluted with acetone. Five microliters of the oil or oil blend listed in the table below were applied to the sternum of a male German Cockroach, and the time to death was recorded (time keeping was stopped at one hour). Sample size N=60 for Blend 41 and each of the oil components. Components were diluted with acetone. Five microliters of the oil or oil blend listed in the table below were applied to the sternum of a male German Cockroach, and the time to death was recorded (time keeping was stopped at one hour). Sample size N=40 for Blend 41 and each of the oil components. Components were diluted with acetone.

[1] = tested on: olfactory receptor activation in Drosophila S2 cells; experiment: Ca2+ release triggered by olfactory receptor activation in Drosophila S2 cells; assay type: cell-based
Excerpt: In embodiments of the present invention, a Drosophila Schneider 2 (S2) cell line is stably transfected with a G protein-coupled receptor that is amplified from Drosophila melanogaster head cDNA phage library. The cell line can be used to screen potential active ingredients, as described below.
The potential for insect control activity can be identified by measuring the affinity of the test compositions for the receptor in the cell lines expressing a TyrR, Or83b, and/or Or43a. The potential for insect control activity can also be identified by measuring the change in intracellular cAMP and/or Ca2+ in the cell lines expressing TyrR, Or83b, and/or Or43a following treatment with the test compositions. The gene sequences of the TyrR, the Or 83b receptor and the Or 43a receptor have substantial similarity between various insect species. As such, the Drosophila Schneider cell lines expressing these receptors can be used to screen for compositions having insect control activity in various insect species.
A blend can is prepared and combined with a synthetic pyrethroid such as delatmetrhin. For example, Blend 41 was combined with deltamethrin (DM) and the efficacy of Blend 41 and DM individually were compared to the efficacy of Blend 41 and DM combined. […]

American cockroaches [2] = experiment: Treated jar test, knockdown and mortality time: Blend 41, deltamethrin, combination; assay type: in vivo, American cockroach; details: average of 3 replicates, 5 roaches each
Description: To test efficacy of the composition, a small amount of each test chemical is introduced to a separate jar. About 3 to 5 American cockroaches are introduced to each jar at different time intervals. Mortality and/or immobilization (knockdown, KD) data is recorded and compared. Such data is recorded as seconds (s) following introduction of the insect to the treated jar. The resulting data is contained in the following table.
The data is the average of 3 replicates, 5 roaches in each replicate.

German Cockroach = experiment: Bioactivity of Blend 13, deltamethrin and combination; assay type: in vivo
Drosophila S2 cells = experiment: cAMP response in cells treated with Blend 41, imidacloprid and combinations; assay type: cell-based
Excerpt: FIG. 23 is a bar graph showing percent knockdown in response to treatment of Aedes aegypti with various compositions of including Blend 41 alone, Imidacloprid alone, and combinations of Blend 41 and Imidacloprid. FIG. 24 is a bar graph showing percent knockdown in response to treatment of Aedes aegypti with various compositions of including Blend 41 alone, Imidacloprid alone, and combinations of Blend 41 and Imidacloprid. FIG. 25 is a bar graph showing cAMP signal produced in response to treatment of Drosophila S2 cells treated with various compositions of including Blend 41 alone, Imidacloprid alone, and combinations of Blend 41 and Imidacloprid.

American cockroaches [3] = experiment: Residual activity of stabilized compositions, treated jars reused, mortality 24 hours after exposure; assay type: in vivo, American cockroach; details: tested about 48 hours after application
Description: A solution of 5% thyme crystals (TC) is prepared in acetone and about 2 ml of the solution is applied to the bottom of a glass jar. About 2 ml of six compositions (R1-R6), set forth in Table 19-A, are each applied to the bottom of a separate jar. Thyme Crystals (5%, by weight) are combined with the six compositions (R1-R6) to produce six formulations. About 2 ml of each formulation is applied to a separate jar.
[…] Mortality is recorded about 24 hours after exposure. All jars are kept under room temperature and reused at subsequent time points to evaluate residual activity. […] Mortality is recorded about 24 hours after each exposure.

American cockroaches [4] = experiment: Residual activity of stabilized compositions, separate jar per time period; assay type: in vivo, American cockroach; details: tested about 48 hours after application; separate jar per time point
Description: In studies where treatment jars are reused at various time intervals, as described in Example 19, the materials in the jars are lost after each exposure due to contact with and transfer to the insect body, rather than via loss due to volatility of the material. As such, additional studies are conducted wherein a separate jar is prepared for each time period.
A solution of 5% thyme crystal (TC) is prepared in acetone and about 2 ml of the solution is applied to the bottom of five separate glass jars, one for each time point at which mortality is assessed. About 2 ml of six compositions (R1-R6), set forth above in Table 19-A, are each applied to the bottom of five separate jars. Thyme Crystals (5%, by weight) are combined with the six compositions (R1-R6) to produce six formulations. About 2 ml of each formulation is applied to five separate jars.
[…] Mortality is recorded about 24 hours after exposure. […] Mortality is recorded about 24 hours after each exposure.

## C=C(C)[C@H]1CC=C(C)CC1 [D-Limonene]
Male German Cockroach; component at 83%, diluted with acetone
  Percent of Tested Insects > 1 hr Time to Death: 25%
Male German Cockroach; component of Blend 31 diluted with acetone, concentration not given
  Percent of Tested Insects > 1 hr Time to Death: 22.5%

## CCCCCCCCCCCCCC(=O)OC(C)C [Isopropyl myristate, propan-2-yl tetradecanoate]
Male German Cockroach; component at 40%, diluted with acetone
  Percent of Tested Insects > 1 hr Time to Death: 100%

## CN/C(=N\[N+](=O)[O-])NCc1cnc(Cl)s1 [clothianidin]
[1]
  Ca2+ release, single agent alone: increase in Ca^2+ release

## CC1(C)[C@H](C(=O)O[C@H](C#N)c2cccc(Oc3ccccc3)c2)[C@@H]1C=C(Br)Br [deltamethrin]
American cockroaches [2]; time to 100% kill in treated jar
  100% Kill: 12 min
American cockroaches [2]; time to knockdown in treated jar
  KD: 140 s
German Cockroach
  Bioactivity 100% Kill: 15 min
  Bioactivity KD: 120 s

## O=[N+]([O-])NC1=NCCN1Cc1ccc(Cl)nc1 [imidacloprid]
Drosophila S2 cells; 100 PPM
  cAMP: 9.1 nM
Drosophila S2 cells; 333 PPM
  cAMP: 9.4 nM
Drosophila S2 cells; 500 PPM
  cAMP: 8.8 nM

## Cc1ccc(C(C)C)c(O)c1 [thyme crystal]
American cockroaches [3]
  residual activity: does not have residual activity
American cockroaches [4]
  residual activity: does not have residual activity
